Experimental findings from PMC11374673, “Discovery of isoquinoline sulfonamides as allosteric gyrase inhibitors with activity against fluoroquinolone-resistant bacteria” (Nature Chemistry, 2024) are described below.

Broadly, the MIC is the lowest concentration that inhibits growth of the organism. The IC50 is the concentration at which inhibition is half-maximal. The low end stands for greater potency, the high end for weaker potency.

≈ marks a conversion by molar mass, not a printed value. Where “and” joins values, the source holds several entries; their conditions need not be identical. Identical values can stand only once. Like-named read-outs stand apart in the source and are kept apart here. A value given as a limit tells only on which side of the number the result lay.

The test system of data set [1] is E. coli W3110. Nature of the data set: H-89 derivatives rescreen, 50 µM. The class given is cell-based. Conditions: Escherichia coli, H-89 derivative rescreen, highest 50 µM. As for the experimental part: From glycerol stocks, E. coli W3110 was cultured on blood agar plates (PB5039A, Thermo Scientific) by overnight (18 ± 2 h) aerobic incubation at 37 °C. A single colony was transferred to tryptic soy broth (TSB, 02-200-500, Scharlab). The cultures were grown to exponential phase (OD600 of 0.5) at 37 °C. The bacterial suspensions were diluted 200-fold in cation-adjusted Mueller–Hinton broth (CAMHB) and 99 µl was added to a library of test compounds (1 µl 10 mM DMSO stock, per well in technical duplicates) in polypropylene 96-well microtitre plates to reach a volume of 100 µl and a final concentration of 100 µM for each test compound and a maximum of 1% DMSO. […] Screening hits were selected from the wells where no visible bacterial growth was observed, as compared with the inoculum controls containing 1% DMSO. The follow-up screen of H-89 derivatives was performed under similar conditions with a final concentration of 50 µM.

Data set [2] deals with K. pneumoniae ATCC 29665. The data set can be described thus: MIC by broth microdilution. It counts as cell-based, Klebsiella pneumoniae. To be noted: read-out: MIC K. pneumoniae ATCC 29665. A digest of the protocol: (§1)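 Broth microdilution in CAMHB: twofold compound series inoculated with 100-fold-diluted bacteria from exponential growth (OD600 0.5, 37 °C); kanamycin 50 µg ml^−1 added for Keio collection strains. Overnight incubation, 37 °C, 600 r.p.m. shaking.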
Background: In broth dilution the organism is exposed to a series of concentrations in liquid medium.

The test system of data set [3] is HepG2. Nature of the data set: Cytotoxicity assay (MTT). It counts as cell-based, human. To be noted: for IC50: MTT, 24 h.
In data set [4] the test system is HEK293T. Nature of the data set: Cytotoxicity assay (MTT). It counts as cell-based, human. Conditions: for MTT data (raw reading) / MTT data (raw readout): HEK293T; for IC50: Homo sapiens, HEK-293T, 24 h, MTT. A digest of the protocol:
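HEK293T cells, maintained at 37 °C and 7% CO2 in Dulbecco’s modified Eagle medium with GlutaMax, antibiotics and serum, were plated in clear 96-well plates in 100 µl medium containing 1% fetal bovine serum and left 24 h to attach. After 24 h compound exposure, MTT (0.40 mg ml^−1) was added for 2 h. Formazan was dissolved in 100 µl DMSO and absorbance measured at 570 nm. Background-corrected IC50 values came from variable-slope non-linear fits.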

Data set [5] concerns E. coli W3110. Nature of the data set: MIC by broth microdilution. It counts as cell-based, Escherichia coli. To be noted: for MIC: broth microdilution, read-out: MIC E. coli W3110. A digest of the protocol:
as §1

The mark [6] stands for this setting: Klebsiella pneumoniae, ATCC29665, broth microdilution.

The molecule `O=S(=O)(NCCNC/C=C/c1ccc(-c2ccccc2)cc1)c1cccc2cnccc12` [Compound 2] gave a minimal inhibitory concentration (MIC) in data set [1] of more than 50 µM.

Molecule `O=S(=O)(NCCNC/C=C/c1ccc(-c2ccc3ccccc3c2)cc1)c1cccc2cnccc12` [Compound 3] came in with an MIC in data set [1] of more than 50 µM.

`O=S(=O)(NCCNC/C=C/c1ccc(-c2ccccc2)cc1)c1cccc2ccccc12` [Compound 4] displayed an MIC in data set [1] of more than 50 µM.

Consider `O=S(=O)(NCCNCc1ccc2cc(-c3cccnc3)ccc2c1)c1cccc2cnccc12` [Compound 5], for which the MIC in data set [1] is more than 50 µM.

In data set [1], `O=S(=O)(NCCNC/C=C/c1ccc(-c2cccnc2)cc1)c1cccc2ccccc12` [Compound 6] registered an MIC of more than 50 µM.

For `O=[N+]([O-])c1ccccc1S(=O)(=O)NCCNC/C=C/c1ccc(-c2cccnc2)cc1` [Compound 7], the MIC in data set [1] is more than 50 µM.

Regarding `O=S(=O)(NC[C@@H]1CC[C@@H](c2ccc(-c3ccc(F)nc3)cc2)N1)c1cccc2cnccc12` [Compound 98], the MIC in data set [2] (setting [6]) is more than 50 µM; in data set [2] (broth microdilution), more than 50 µM; in data set [5] (Escherichia coli, W3110, WT), more than 50 µM; in data set [5] (WT), more than 50 µM. Also, the “MTT data (raw reading)” value in data set [3] (HepG2, 0.023 uM, n = 1) is 0.370 and 0.364 and 0.367; in data set [3] (HepG2, 0.023 uM, n = 2), 0.490 and 0.437 and 0.362; in data set [3] (HepG2, 0.068 uM, n = 1) it was 0.458 and 0.420 and 0.439; in data set [3] (HepG2, 0.068 uM, n = 2) it was 0.379 and 0.325 and 0.398; in data set [3] (HepG2, 0.21 uM, n = 1) it was 0.404 and 0.366 and 0.380; in data set [3] (HepG2, 0.21 uM, n = 2), 0.373 and 0.308 and 0.356. The “MTT data (raw reading)” value is 0.411 and 0.337 and 0.367 in data set [3] (HepG2, 0.62 uM, n = 1); 0.419 and 0.335 and 0.320 in data set [3] (HepG2, 0.62 uM, n = 2); 0.394 and 0.411 and 0.409 in data set [3] (HepG2, 1.85 uM, n = 1); 0.343 and 0.331 and 0.334 in data set [3] (HepG2, 1.85 uM, n = 2); 0.374 and 0.346 and 0.373 in data set [3] (HepG2, 5.6 uM, n = 1); 0.307 and 0.313 and 0.306 in data set [3] (HepG2, 5.6 uM, n = 2). For the same molecule, the “MTT data (raw reading)” value is 0.262 and 0.289 and 0.283 in data set [3] (HepG2, 16.7 uM, n = 1); 0.250 and 0.271 and 0.247 in data set [3] (HepG2, 16.7 uM, n = 2); 0.250 and 0.255 and 0.242 in data set [3] (HepG2, 50 uM, n = 1); 0.199 and 0.179 and 0.169 in data set [3] (HepG2, 50 uM, n = 2); 1.493 and 1.422 and 1.498 in data set [4] (0.023 uM, n = 1); 1.187 and 1.056 and 1.058 in data set [4] (0.023 uM, n = 2). In addition, the “MTT data (raw reading)” value in data set [4] (0.068 uM, n = 1) is 1.655 and 1.492 and 1.570; in data set [4] (0.068 uM, n = 2) it was 1.098 and 1.078 and 1.080; in data set [4] (0.21 uM, n = 1) it was 1.461 and 1.519 and 1.638; in data set [4] (0.21 uM, n = 2) it was 1.171 and 1.012 and 1.113; in data set [4] (0.62 uM, n = 1), 1.554 and 1.331 and 1.351; in data set [4] (0.62 uM, n = 2), 1.166 and 1.093 and 0.989. In addition, the “MTT data (raw reading)” value in data set [4] (1.85 uM, n = 1) was 1.381 and 1.338 and 1.408; in data set [4] (1.85 uM, n = 2), 1.030 and 0.960 and 0.941; in data set [4] (5.6 uM, n = 1) it was 1.292 and 1.223 and 1.327; in data set [4] (5.6 uM, n = 2), 0.968 and 1.003 and 0.916; in data set [4] (16.7 uM, n = 1), 1.160 and 1.126 and 1.075; in data set [4] (16.7 uM, n = 2), 0.762 and 0.627 and 0.780. Further, the “MTT data (raw reading)” value is 0.797 and 0.734 in data set [4] (50 uM, n = 1); 0.478 and 0.528 in data set [4] (50 uM, n = 2). For the same molecule, the concentration for half-maximal inhibition (IC50) in data set [3] (Homo sapiens, HepG2, 24 h) is 66 µM; in data set [3], more than 50 µM; in data set [4], 49 µM. For the same molecule, in data set [5] (relative to parent compound), the “antimicrobial activity” value was “completely inactive”.

In the case of `O=S(=O)(NC[C@@H]1CC[C@H](c2ccc(-c3ccccc3)cc2)N1)c1cccc2cnccc12` [Compound 100], the MIC in data set [2] (setting [6]) came to 6.25 µM (≈ 2.77 µg/mL); in data set [5] (Escherichia coli, W3110, WT), 1.6 µM (≈ 0.71 µg/mL). The “MTT data (raw readout)” value in data set [3] (HepG2, 0.023 uM, experiment n = 1, technical triplicates) was 0.333 and 0.336 and 0.361; in data set [3] (HepG2, 0.023 uM, experiment n = 2, technical triplicates) it was 0.317 and 0.327 and 0.342; in data set [3] (HepG2, 0.068 uM, experiment n = 1, technical triplicates) it was 0.444 and 0.395 and 0.393; in data set [3] (HepG2, 0.068 uM, experiment n = 2, technical triplicates) it was 0.444 and 0.405 and 0.418; in data set [3] (HepG2, 0.21 uM, experiment n = 1, technical triplicates), 0.321 and 0.295 and 0.307; in data set [3] (HepG2, 0.21 uM, experiment n = 2, technical triplicates) it was 0.315 and 0.286 and 0.293. Moreover, the “MTT data (raw readout)” value in data set [3] (HepG2, 0.62 uM, experiment n = 1, technical triplicates) is 0.316 and 0.335 and 0.382; in data set [3] (HepG2, 0.62 uM, experiment n = 2, technical triplicates), 0.313 and 0.317 and 0.366; in data set [3] (HepG2, 1.85 uM, experiment n = 1, technical triplicates), 0.377 and 0.346 and 0.368; in data set [3] (HepG2, 1.85 uM, experiment n = 2, technical triplicates), 0.307 and 0.264 and 0.317; in data set [3] (HepG2, 5.6 uM, experiment n = 1, technical triplicates), 0.341 and 0.333 and 0.345; in data set [3] (HepG2, 5.6 uM, experiment n = 2, technical triplicates), 0.271 and 0.300 and 0.310. Further, the “MTT data (raw readout)” value in data set [3] (HepG2, 16.7 uM, experiment n = 1, technical triplicates) is 0.345 and 0.363 and 0.356; in data set [3] (HepG2, 16.7 uM, experiment n = 2, technical triplicates) it was 0.277 and 0.308 and 0.357; in data set [3] (HepG2, 50 uM, experiment n = 1, technical triplicates), 0.236 and 0.222 and 0.339; in data set [3] (HepG2, 50 uM, experiment n = 2, technical triplicates) it was 0.109 and 0.122 and 0.118; in data set [4] (0.023 uM, experiment n = 1, technical triplicates) it was 1.435 and 1.455 and 1.506; in data set [4] (0.023 uM, experiment n = 2, technical triplicates) it was 1.022 and 0.970 and 0.963. The “MTT data (raw readout)” value in data set [4] (0.068 uM, experiment n = 1, technical triplicates) is 1.260 and 1.443 and 1.546; in data set [4] (0.068 uM, experiment n = 2, technical triplicates) it was 1.032 and 0.974 and 0.962; in data set [4] (0.21 uM, experiment n = 1, technical triplicates) it was 1.440 and 1.428 and 1.427; in data set [4] (0.21 uM, experiment n = 2, technical triplicates), 1.023 and 0.943 and 0.880; in data set [4] (0.62 uM, experiment n = 1, technical triplicates) it was 1.304 and 1.414 and 1.203; in data set [4] (0.62 uM, experiment n = 2, technical triplicates) it was 0.795 and 0.796 and 0.802. Further, the “MTT data (raw readout)” value in data set [4] (1.85 uM, experiment n = 1, technical triplicates) is 0.892 and 0.934 and 1.008; in data set [4] (1.85 uM, experiment n = 2, technical triplicates), 0.653 and 0.625 and 0.564; in data set [4] (5.6 uM, experiment n = 1, technical triplicates), 0.787 and 0.844 and 0.842; in data set [4] (5.6 uM, experiment n = 2, technical triplicates), 0.528 and 0.470 and 0.496; in data set [4] (16.7 uM, experiment n = 1, technical triplicates), 0.654 and 0.620 and 0.622; in data set [4] (16.7 uM, experiment n = 2, technical triplicates), 0.433 and 0.475 and 0.464. Besides, the “MTT data (raw readout)” value in data set [4] (50 uM, experiment n = 1, technical triplicates) was 0.419 and 0.461 and 0.443; in data set [4] (50 uM, experiment n = 2, technical triplicates), 0.271 and 0.254 and 0.252. For the same molecule, the IC50 in data set [3] (Homo sapiens, HepG2, 24 h) was determined as 37 µM; in data set [4], 8.1 µM. Also, in data set [4] (HEK293T and HepG2), the “cytotoxicity” value is reported as “substantial cytotoxicity”.
